In this test the target is T1, PI3Kα (Homo sapiens, UniProt P42336).
T1 construct: His
T1 sequence (P42336 whole entry, species assumed): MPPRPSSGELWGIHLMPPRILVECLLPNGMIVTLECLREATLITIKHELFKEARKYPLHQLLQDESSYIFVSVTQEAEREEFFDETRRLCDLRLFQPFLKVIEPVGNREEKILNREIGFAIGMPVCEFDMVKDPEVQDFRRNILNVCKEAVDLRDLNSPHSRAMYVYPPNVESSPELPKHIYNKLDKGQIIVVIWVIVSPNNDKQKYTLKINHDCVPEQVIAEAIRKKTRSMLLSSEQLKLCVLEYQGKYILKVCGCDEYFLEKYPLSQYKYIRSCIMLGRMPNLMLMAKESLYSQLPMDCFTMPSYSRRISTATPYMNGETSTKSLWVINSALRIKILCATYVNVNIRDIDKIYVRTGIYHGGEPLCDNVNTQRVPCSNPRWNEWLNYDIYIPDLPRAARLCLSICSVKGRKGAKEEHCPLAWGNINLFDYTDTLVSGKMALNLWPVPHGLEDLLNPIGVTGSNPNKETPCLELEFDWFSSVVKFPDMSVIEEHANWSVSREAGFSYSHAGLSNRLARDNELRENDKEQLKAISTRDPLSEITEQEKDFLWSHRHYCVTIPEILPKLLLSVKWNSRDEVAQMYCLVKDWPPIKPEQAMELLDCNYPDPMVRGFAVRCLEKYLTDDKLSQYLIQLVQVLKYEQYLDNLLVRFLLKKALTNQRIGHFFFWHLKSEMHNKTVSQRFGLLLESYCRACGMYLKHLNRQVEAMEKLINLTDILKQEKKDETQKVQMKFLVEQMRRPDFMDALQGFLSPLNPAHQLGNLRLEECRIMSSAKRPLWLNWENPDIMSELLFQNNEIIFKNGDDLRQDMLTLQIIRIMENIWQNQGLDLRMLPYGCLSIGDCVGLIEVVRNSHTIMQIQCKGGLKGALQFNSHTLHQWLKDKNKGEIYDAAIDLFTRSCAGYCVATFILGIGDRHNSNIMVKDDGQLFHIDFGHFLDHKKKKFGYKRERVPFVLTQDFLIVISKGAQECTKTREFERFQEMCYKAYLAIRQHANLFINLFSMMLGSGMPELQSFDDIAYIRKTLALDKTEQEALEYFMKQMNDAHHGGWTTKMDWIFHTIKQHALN
T1 sequence (P27986 whole entry partner, species assumed): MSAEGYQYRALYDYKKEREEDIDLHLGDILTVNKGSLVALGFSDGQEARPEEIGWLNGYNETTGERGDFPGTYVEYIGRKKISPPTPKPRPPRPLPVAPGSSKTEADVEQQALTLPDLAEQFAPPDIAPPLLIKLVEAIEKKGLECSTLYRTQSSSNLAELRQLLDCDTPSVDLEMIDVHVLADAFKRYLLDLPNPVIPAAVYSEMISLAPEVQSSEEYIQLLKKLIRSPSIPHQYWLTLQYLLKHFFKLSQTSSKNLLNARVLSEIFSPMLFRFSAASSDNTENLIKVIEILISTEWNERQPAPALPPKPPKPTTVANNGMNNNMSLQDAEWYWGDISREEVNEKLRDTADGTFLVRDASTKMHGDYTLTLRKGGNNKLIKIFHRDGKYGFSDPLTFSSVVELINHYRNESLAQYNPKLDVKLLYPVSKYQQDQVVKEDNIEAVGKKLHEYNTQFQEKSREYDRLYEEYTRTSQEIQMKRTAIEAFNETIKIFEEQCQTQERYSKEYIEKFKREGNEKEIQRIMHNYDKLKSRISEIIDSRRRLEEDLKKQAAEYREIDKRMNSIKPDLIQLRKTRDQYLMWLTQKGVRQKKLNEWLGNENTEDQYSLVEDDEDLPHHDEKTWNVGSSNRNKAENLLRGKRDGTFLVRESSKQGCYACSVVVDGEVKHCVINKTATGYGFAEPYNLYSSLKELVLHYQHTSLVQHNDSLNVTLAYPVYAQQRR
Kind of test: PI3K Alpha Leadseeker SPA Assay. The conditions noted are these: in at least one experimental run; read-out: IC50 value against PI3Kα. Type of test: biochemical. The text has this: PI3K Alpha Leadseeker SPA Assay
SPA imaging beads are microspheres containing scintillant which emit light in the red region of the visible spectrum. As a result, these beads are ideally suited to use with a CCD imager such as the Viewlux. The Leadseeker beads used in this system are polystyrene beads that have been coupled with polyethyleneimine. When added to the assay mixture, the beads absorb both the substrate (PIP2) and product (PIP3). Adsorbed P^33-PIP3 will cause an increase in signal, measured as ADUs (analog to digital units). This protocol details the use of the PEI-PS Leadseeker beads for assays using His-p110/p85 PI3K alpha.
The compounds are serially diluted (3-fold in 100% DMSO) across the plate from column 1 to column 12 and column 13 to column 24 and leave column 6 and 18 containing only DMSO to yield 11 concentrations for each test compound.
The assay buffer contains MOPS (pH 6.5), CHAPS, and DTT. PI3K alpha and PIP2 (L-alpha-D-myo-Phosphatidylinositol 4,5-bisphosphate[PI(4,5)P2]3-O-phospho linked, D(+)-sn-1,2-di-O-octanoylglyceryl, CellSignals # 901) are mixed and incubated in the plate with compound for 30 min prior to starting the reaction with the addition of P^33-ATP and MgCl2 (reagents added using Zoom). […] PEI-PS Leadseeker beads in PBS/EDTA/CHAPS are added (by Multidrop) to quench the reaction, and the plates are allowed to incubate for at least one hour (typically overnight) before centrifugation. The signal is determined using a Viewlux detector and is then imported into curve fitting software (Activity Base) for construction of concentration response curves. The percent inhibition of activity is calculated relative to high controls (C1, 0.1 μl DMSO in column 6, rows A-P)) and low controls (C2, 5 μl of 40 uM PIP2 in buffer in column 18, rows A-P) using, 100*(1−(U1−C2)/(C1−C2)). The concentration of test compound yielding 50% inhibition is determined using the equation, y=((Vmax*x)/(K+x))+Y2, where “K” was equal to the […]. The IC50 values are converted to pIC50 values, i.e., −log IC50 in Molar concentration.
As for `c1cc2ncc(N3CCOCC3)nc2cc1-c1cnc2[nH]ncc2c1` [Example 1, 2-(4-morpholinyl)-7-(1H-pyrazolo[3,4-b]pyridin-5-yl)quinoxaline], the concentration for half-maximal inhibition (IC50) turned out to be 5 nM. As for `COc1ccc(-c2ccc3ncc(N4CCOCC4)nc3c2)cn1` [Example 2], the figure is 100 nM; as for `c1cc2cc(-c3ccc4ncc(N5CCOCC5)nc4c3)cnc2[nH]1` [Example 4], 50 nM; as for `CCNc1cnc2ccc(-c3cnc(N)c(S(=O)(=O)N(C)C)c3)cc2n1` [Example 19], 8 nM. With `NS(=O)(=O)c1cncc(-c2ccc3ncc(-c4ccncc4)nc3c2)c1` [Example 70], the concentration for half-maximal inhibition (IC50) is 200 nM.

As a reminder, the IC50 is the concentration needed to halve the response being measured.

For the origin of these results see patent US20100234386A1, “QUINOXALINE DERIVATIVES AS PI3 KINASE INHIBITORS” (priority 2007, published 2010).
